# Data: patent EP3255433A1, “METHODS USING BLM AS A MARKER OF MULTIPLE MYELOMA” (priority 2016, dated 2017)
# pIC50: −log10 of the molar value. Where two headings read alike, the source gives them in different places.
# How the values were obtained:
# [1] = system: human myeloma cell lines (HMCL); assay: Cell growth inhibition of human myeloma cell lines (CellTiter-Glo Luminescent Cell Viability Assay); format: cell-based; conditions: 96 h, 4 days culture, 2 ng/ml interleukin six
# From the text: • Figure 1: BLM expression in normal and malignant plasma cells. BLM expression in normal BMPCs (N = 5), in MM cells of patients with intramedullary MM (N = 206) and in HMCLs (N = 26). Ordinate : BLM expression, as expressed in Affimetrix signal arbitrary units. Abscissa : from left to right : BMPCs (n=5); MMCs (n=206) and HMCLs (n=26). • Figure 2: BLM gene expression in the 7 MM molecular subgroups of the TT2-cohort. PR = proliferation, LB = low bone disease, MS = MMSET, HY = hyperdiploid, CD1 = cyclin D1/D3, CD2 = cyclin D1/D3, MF = MAF. * indicates higher score value compared to all other groups with P<0.05. Ordinate : BLM expression, as expressed in Affimetrix signal arbitrary units. […] At day 4 of culture, the viability was assessed by CellTiter-Glo® Luminescent Cell Viability Assay. […] Data are mean values ± standard deviation (SD) of five experiments determined on sextuplet culture wells. • Figure 4A : Growth inhibition of a plurality of MM cell lines in the presence of the ML216 BLM inhibitor. Ordinate : cell growth inhibition, as expressed as percent of control cells without ML216 :Cell lines tested : □ XG1 cells; ◊ XG7 cells; ○ XG12 cells; ◆XG25 cells; ● XG19 cells; + LP1 cells. […] At day 4 of culture, the viability and total cell counts were assessed and the percentage of CD138 viable plasma and non-myeloma cells was determined by flow cytometry. […]
# [2] = system: primary myeloma cells of patients; assay: Cytotoxicity on primary myeloma cells of patients (CD138 flow cytometry); format: cell-based, human; conditions: 4 days, IL-6 (1 ng/mL), co-cultured with bone marrow environment, n=7
# From the text: • Figure 1: BLM expression in normal and malignant plasma cells. BLM expression in normal BMPCs (N = 5), in MM cells of patients with intramedullary MM (N = 206) and in HMCLs (N = 26). Ordinate : BLM expression, as expressed in Affimetrix signal arbitrary units. Abscissa : from left to right : BMPCs (n=5); MMCs (n=206) and HMCLs (n=26). • Figure 2: BLM gene expression in the 7 MM molecular subgroups of the TT2-cohort. PR = proliferation, LB = low bone disease, MS = MMSET, HY = hyperdiploid, CD1 = cyclin D1/D3, CD2 = cyclin D1/D3, MF = MAF. * indicates higher score value compared to all other groups with P<0.05. Ordinate : BLM expression, as expressed in Affimetrix signal arbitrary units. Abscissa : from left to right: PR, LB, MS, HY, CD1, CD2 and MF . • Figure 3: BLM expression in MMCs could predict for shorter overall and event free survival in independent cohorts of patients. • Figure 3A : Patients of the HM cohort (n = 206) were ranked according to increasing BLM expression and a maximum difference in overall survival (OS) was obtained using the Maxstat R function. Upper curve : BLM^Low; Lower curve : BLM^High. Ordinate : Overall Survival (OS). Abscissa : Days from diagnosis. • Figure 3B : BLM expression is also associated with a shorter event free survival (EFS) in the HM cohort (n = 206). Upper curve : BLM^Low; Lower curve : BLM^High. Ordinate : […]). […] At day 4 of culture, the viability was assessed by CellTiter-Glo® Luminescent Cell Viability Assay. […] Data are mean values ± standard deviation (SD) of five experiments determined on sextuplet culture wells. • Figure 4A : Growth inhibition of a plurality of MM cell lines in the presence of the ML216 BLM inhibitor. Ordinate : cell growth inhibition, as expressed as percent of control cells without ML216 :Cell lines tested : □ XG1 cells; ◊ XG7 cells; ○ XG12 cells; ◆XG25 cells; ● XG19 cells; + LP1 cells. […] At day 4 of culture, the viability and total cell counts were assessed and the percentage of CD138 viable plasma and non-myeloma cells was determined by flow cytometry. […]
smiles,measurement,setting,value
O=C(Nc1ccc(F)c(C(F)(F)F)c1)Nc1nnc(-c2ccncc2)s1 [ML216],pIC50,"[1]; median over 6 HMCL (XG-1, XG-7, XG-12, XG-25, XG-19, LP1), read-out: median IC50",5.39
same,pIC50,"[1]; range over 6 HMCL, read-out: IC50 (range)",4.52 to 5.92
same,reduction of the median number of viable myeloma cells,"[2]; 3 µM, P = 0.001",54%
same,reduction of the median number of viable myeloma cells,"[2]; 6 µM, P < 0.001",60%
same,reduction of the median number of viable myeloma cells,"[2]; 10 µM, P <0.001",74%
